Data taken from PMC7958448, “Bepridil is potent against SARS-CoV-2 in vitro” (Proceedings of the National Academy of Sciences of the …, 2021).
Like-named read-outs stand apart in the source and are kept apart here.

What was measured:
[1] = test system: SARS-CoV-2 in A549/ACE2 cells; test: microbe, parasite or virus in culture; format: cell-based; details: Severe acute respiratory syndrome coronavirus 2, A549-ACE2, 96 h; read-out: EC50 in inhibiting SARS-CoV-2
[2] = test system: SARS-CoV-2 in Vero E6 cells; test: microbe, parasite or virus in culture; format: cell-based; details: Severe acute respiratory syndrome coronavirus 2, Vero C1008, 72 h; read-out: EC50 in inhibiting SARS-CoV-2
[3] = test system: SARS-CoV-2 in Vero E6 cells; format: cell-based
[4] = test system: Ebola virus; details: mouse, in vivo, 12 mg/kg; cited from earlier work
[5] = test system: SARS-CoV-2 in A549/ACE2 cells; format: cell-based; details: 6 repeats
[6] = target: T1, SARS-CoV-2 main protease (Mpro) (Severe acute respiratory syndrome coronavirus 2, UniProt P0DTD1); details: 1 mM medicine, relative to control without small molecule
[7] = target: T1, SARS-CoV-2 main protease (Mpro); test: biochemical
[8] = test system: SARS-CoV-2 entry into mammalian cell hosts; details: cell-based study; read-out: EC50 in inhibiting the SARS-CoV-2 entry; cited from earlier work

CC(C)COCC(CN(Cc1ccccc1)c1ccccc1)N1CCCC1 (centres unmarked) [Bepridil]
EC50 [1]: 460 nM | EC50 [2]: 860 nM | SARS-CoV-2 induced CPE [3]: No CPE | SARS-CoV-2 induced CPE ([3]; Vero E6, bepridil 6.25 µM, 6 repeats): No CPE | SARS-CoV-2 induced CPE ([3]; Vero E6, bepridil 25 µM, 6 repeats): No CPE | protection from Ebola virus infections [4]: 100% | SARS-CoV-2 induced CPE ([5]; A549/ACE2, bepridil 6.25 µM): No CPE | SARS-CoV-2 induced CPE ([5]; A549/ACE2, bepridil 12.5 µM): No CPE | SARS-CoV-2 induced CPE ([5]; A549/ACE2, bepridil 25 µM): No CPE | SARS-CoV-2 induced CPE ([5]; A549/ACE2, bepridil 50 µM): No CPE

CCN1CC(CCN2CCOCC2)C(c2ccccc2)(c2ccccc2)C1=O (centres unmarked) [Doxapram]
activation of Mpro [6]: > 15%

Cc1cccc(C)c1OCC(=O)N[C@@H](Cc1ccccc1)[C@@H](O)C[C@H](Cc1ccccc1)NC(=O)[C@H](C(C)C)N1CCCNC1=O [Lopinavir]
IC50 ([7]; 50 nM Mpro, 10 µM Sub3, 20% DMSO, mean ± SE, triplicate): 486000 ± 2000 nM | Hill slope ([7]; four-parameter variable slope fit of the IC50 curve): 29.9 ± 2.4

Cc1c(O)cccc1C(=O)N[C@@H](CSc1ccccc1)[C@H](O)CN1C[C@H]2CCCC[C@H]2C[C@H]1C(=O)NC(C)(C)C [Nelfinavir]
EC50 [8]: 1000 nM

CN1CCN(CC(=O)N2c3ccccc3C(=O)Nc3cccnc32)CC1 [Pirenzepine]
activation of Mpro [6]: > 15%

CCOc1ccccc1OC(c1ccccc1)C1CNCCO1 (centres unmarked) [Reboxetine]
activation of Mpro [6]: > 15%

CCOC(=O)/C=C/[C@H](C[C@@H]1CCNC1=O)NC(=O)[C@@H](CC(=O)[C@@H](NC(=O)c1cc(C)on1)C(C)C)Cc1ccc(F)cc1 [Rupintrivir]
Hill slope [7]: 1.4 ± 0.2
